Patent publication US6518423B1, “Benzopiperidine derivatives” (Eisai Co., Ltd., priority 1996, dated 2003)
Where a name gives a salt, the structure may show the parent alone. Read-outs that look alike come from different tables or passages of the source.

Key:
ICAM-1 = assay: Effect on the expression of ICAM-1 in human cultured umbilical cord endothelial cells (TNF-stimulated, ELISA); assay type: cell-based; conditions: 1 ng/ml TNF, expression with TNF = 100%, without TNF = 0%, read-out: IC50 (50% inhibitory concentration of ICAM-1 expression)
Protocol: Effect on the Expression of ICAM-1 in Human Cultured Umbilical Cord Endothelial Cells
Examination was made on the effect on the expression of ICAM-1 which is one of adhesion molecules expressed on the surfaces of cultured endothelia cells. The endotheliall cells were suspended in an MCDB131 medium containing 10% of fetal calf serum and pipetted into a 96-well culture plate (10,000 cells/well). After culturing at 37° C. in the presence of 5% of carbon dioxide for 2 days, 1 ng/ml of a tumor necrosis factor (TNF) and a test compound were added to the 96-well culture plate. After culturing at 37° C. in the presence of 5% of carbon dioxide for 4 hours and then washing with a phosphate buffer once, 0.05% of glutaraldehyde was added thereto. Six minutes thereafter, the plate was washed twice and 1 μg/ml of a mouse antihuman ICAM-1 antibody was added thereto. After allowing to stand for 1 hour, it was washed twice and a peroxidase-labeled sheep antimouse immunoglobulin antibody was added thereto. After allowing to stand for 1 hour, it was washed twice and a color developing substrate for peroxidase (o-phenylenediamine) was added thereto. After allowing to stand at room temperature for 10 minutes, a 1 N solution of sulfuric acid was added thereto. Then the absorbance at 490 nm was measured with the use of an absorptiometer for 96-well plate. The value thus obtained was employed as an indication of the ICAM-1 expression.

[1] = test system: Carrageenin-induced Rat Pleurisy; assay: Effect on carrageenin-induced rat pleurisy; assay type: in vivo; conditions: total cell count in pleural exudate 5 hours after carrageenin; for inhibition in vivo at 10 mg/kg / Inhibitory ratio (%): dose 10 mg/kg orally 30 minutes before carrageenin; for Inhibitory ratio (%): 10 mg/kg; for inhibition in vivo at 30 mg/kg: dose 30 mg/kg orally 30 minutes before carrageenin
Protocol: Effect on Carrageenin-induced Rat Pleurisy
200 μl of a carrageenin solution (10 mg/ml in physiological saline) was intrathoracically injected into rats. Five hours thereafter, blood of the animals was collected from the abdominal aorta under etherization so as to induce death from blood loss. The exudate was taken up from the thoracic cavity and weighed with a single-pan balance. Further, the exudate was diluted with Turk's solution and the cells were counted by using a counting chamber. Next the total cell count was calculated by multiplying the cell count by the exudate volume. Thus the inhibitory ratio was calculated by taking the total cell count with the administration of carrageenin as 100% and that with the administration of physiological saline as 0%. Each test compound was suspended in a 0.5% solution of methylcellulose and orally administered at a dose of 5 ml/kg 30 minutes before the injection of carrageenin.

[2] = Rattus norvegicus, po, 5 h, read-out: Inhibitory ratio (%)
[3] = Homo sapiens, Endothelial cell, 4 h

SMILES	inhibition in vivo at 10 mg/kg [1, 2]	IC50 (ICAM-1; [3])	melting point	further results
O=C(O)CC1C2CCCC1CN(Cc1ccc3c(c1)Nc1nccnc1S3)C2 (stereo not drawn) [Example 15, (syn)-[3-(10H-Pyrazino[2,3-b][1,4]benzothiazin-8-ylmethyl)-3-azabicyclo[3.3.1]non-9-yl]acetic acid]	64%			IC50 (ICAM-1; 4 hours): 2.3 µM
O=C(O)CC1C2CCCC1CN(Cc1ccc3c(c1)Nc1nccnc1S3)C2 (stereo not drawn) [Example 18, (anti)-[3-(10H-Pyrazino[2,3-b][1,4]benzothiazin-8-ylmethyl)-3-azabicyclo[3.3.1]non-9-yl]acetic acid]				IC50 (ICAM-1; 4 hours): 3.5 µM; Inhibitory ratio (%) [1]: 67%
CC1C(C)C2CN(Cc3ccc4c(c3)Nc3nccnc3S4)CC1C2CC(=O)O (stereo not drawn) [Example 23, (+)-(anti)-(6R*,7R*)-[3-(10H-Pyrazino[2,3-b][1,4]benzothiazin-8-ylmethyl)-6,7-dimethyl-3-azabicyclo[3.2.1]oct-8-yl]acetic acid]	52%			IC50 (ICAM-1; 4 hours): 1.6 µM
CC1C(C)C2CN(Cc3ccc4c(c3)Nc3nccnc3S4)CC1C2CC(=O)O (stereo not drawn) [Example 24, (−)-(anti)-(6R*,7R*)-[3-(10H-Pyrazino[2,3-b][1,4]benzothiazin-8-ylmethyl)-6,7-dimethyl-3-azabicyclo[3.2.1]oct-8-yl]acetic acid]				IC50 (ICAM-1; 4 hours): 4.1 µM; Inhibitory ratio (%) [1]: 54%
CC1CC(C)C2CN(Cc3ccc4c(c3)Nc3nccnc3S4)CC1C2C(C)C(=O)O (stereo not drawn) [Example 30, (+)-(anti)-(6R*,8R*)-2-[3-(10H-pyrazino[2,3-b][1,4]benzothiazin-8-ylmethyl)-6,8-dimethyl-3-azabicyclo[3.3.1]non-9-yl]propanoic acid]				IC50 (ICAM-1; 4 hours): 0.5 µM; Inhibitory ratio (%) [1]: 85%
CC1CC(C)C2CN(Cc3ccc4c(c3)Nc3nccnc3S4)CC1C2C(C)C(=O)O (stereo not drawn) [Example 31, (−)-(anti)-(6R*,8R*)-2-[3-(10H-pyrazino[2,3-b][1,4]benzothiazin-8-ylmethyl)-6,8-dimethyl-3-azabicyclo[3.3.1]non-9-yl]propanoic acid]				IC50 (ICAM-1; 4 hours): 1.1 µM; Inhibitory ratio (%) [1]: 38%
O=C(O)C=C1C2CCC1CN(Cc1ccc3c(c1)Nc1nccnc1S3)C2 [Example 70]		2.8 µM	268 to 271 °C	
O=C(O)CC1C2CCC1CN(Cc1ccc3c(c1)Nc1nccnc1S3)C2 (stereo not shown) [Example 71]	94%	0.8 µM		
O=C(O)C1C2CCC1CN(Cc1ccc3c(c1)Nc1nccnc1S3)C2 (stereo not shown) [Example 73]	74%	0.6 µM		
O=C(O)C1C2CCCC1CN(Cc1ccc3c(c1)Nc1nccnc1S3)C2 (stereo not shown) [Example 74]		1.9 µM	272 to 275 °C	
CC(C)(C)C1CC2CN(Cc3ccc4c(c3)Nc3nccnc3S4)CC(C1)C2CC(=O)O (stereo not shown) [Example 77]		2.8 µM	138 to 140 °C	
CC1CC(C)C2CN(Cc3ccc4c(c3)Nc3nccnc3S4)CC1C2CC(=O)O (stereo not shown) [Example 79]	44%			
O=C(O)CC1C2CCCCC1CN(Cc1ccc3c(c1)Nc1nccnc1S3)C2 (stereo not shown) [Example 80]		4.1 µM	217 to 218 °C	
CC(C(=O)O)C1C2CCCC1CN(Cc1ccc3c(c1)Nc1nccnc1S3)C2 (stereo not shown) [Example 82]		3.4 µM		
CC(C(=O)O)C1C2CCCC1CN(Cc1ccc3c(c1)Nc1nccnc1S3)C2 (stereo not shown) [Example 83]	34%			IC50 (ICAM-1; 4 hours): 2.8 µM
O=C(O)CC1C2CN(Cc3ccc4c(c3)Nc3nccnc3S4)CC1C21CCC1 (stereo not shown) [Example 85]		6.4 µM	175 to 180 °C	
O=C(O)CC1C2CC(c3ccccc3)CC1CN(Cc1ccc3c(c1)Nc1nccnc1S3)C2 (stereo not shown) [Example 87]		2.9 µM	128 to 131 °C	
CC1C(C)C2CN(Cc3ccc4c(c3)Nc3nccnc3S4)CC1C2CC(=O)O (stereo not shown) [Example 89]	83%	2.8 µM		
O=C(O)C12CCCC(CN(Cc3ccc4c(c3)Nc3nccnc3S4)C1)C2 (stereo not shown) [Example 90]		2.8 µM	186 to 188 °C	
CC1CCC2CN(Cc3ccc4c(c3)Nc3nccnc3S4)CC1C2CC(=O)O (stereo not shown) [Example 91]	76%	2.9 µM		
O=C(O)C1CC2CC(C1)CN(Cc1ccc3c(c1)Nc1nccnc1S3)C2 (stereo not shown) [Example 98]	30%	2.4 µM		
CC(CCC1C2CN(Cc3ccc4c(c3)Nc3nccnc3S4)CC1C(C)CC2C)C(=O)O (stereo not shown) [Example 100]		3.8 µM	110 to 115 °C	
CC1CC(C)C2CN(Cc3ccc4c(c3)Nc3nccnc3S4)CC1C2CCC(=O)O (stereo not shown) [Example 101]	48%	2.6 µM		

SMILES	inhibition in vivo at 10 mg/kg [1, 2]	IC50 (ICAM-1; [3])	melting point	further results
CC1CC(C)C2CN(Cc3ccc4c(c3)Nc3nccnc3S4)CC1C2CCCC(=O)O (stereo not shown) [Example 102]		2.6 µM	98 to 105 °C	
COC1(CC(=O)O)C2CCCC1CN(Cc1ccc3c(c1)Nc1nccnc1S3)C2 (stereo not shown) [Example 103]		6.6 µM	217 to 219 °C	
O=C(O)CC12CCCC(CN(Cc3ccc4c(c3)Nc3nccnc3S4)C1)C2 (stereo not shown) [Example 104]		2.8 µM	215 to 217 °C	
COC1(CC(=O)O)C2CCCC1CN(Cc1ccc3c(c1)Nc1nccnc1S3)C2 (stereo not shown) [Example 105]			225 to 228 °C	IC50 (ICAM-1; 4 hours): 5.8 µM
O=C(O)C1CC2CC3CN(Cc4ccc5c(c4)Nc4nccnc4S5)CC(C2)C31 (stereo not shown) [Example 106]	46%	2.8 µM		
CC1(C(=O)O)C2CCCC1CN(Cc1ccc3c(c1)Nc1nccnc1S3)C2 (stereo not shown) [Example 113]		2.5 µM	264 to 265 °C	
O=C(O)C=C1CC2CCC(C1)N2Cc1ccc2c(c1)Nc1nccnc1S2 [Example 118]		1.6 µM	206 to 208 °C	
O=C(O)c1ccc(OCCC2C3CCCC2CN(Cc2ccc4c(c2)Nc2nccnc2S4)C3)cc1 (stereo not shown) [Example 121]	70%	7.4 µM		
CS(=O)(=O)NC1CCN(Cc2ccc3c(c2)Nc2nccnc2S3)CC1 [Example 402]	57%	0.32 µM		
CNS(=O)(=O)NC1CCN(Cc2ccc3c(c2)Nc2nccnc2S3)CC1 [Example 403]	35%	0.34 µM		
CN(C)S(=O)(=O)NC1CCN(Cc2ccc3c(c2)Nc2nccnc2S3)CC1 [Example 460]	57%	0.32 µM		
O=C(O)Cc1ccc(C2CCN(Cc3ccc4c(c3)Nc3nccnc3S4)CC2)cc1 [Example 659]	20%	0.71 µM		
O=C(O)CC1CC2(CCN(Cc3ccc4c(c3)Nc3nccnc3S4)CC2)C1 [Example 677]	76%	0.9 µM		
O=C(O)C1CC2(CCN(Cc3ccc4c(c3)Nc3nccnc3S4)CC2)C1 [Example 686]	71%	0.9 µM		
O=C(O)C1(C2CCN(Cc3ccc4c(c3)Nc3nccnc3S4)CC2)CC1 [Example 698]	26%	0.49 µM		
O=C(O)CC1CCC2CN(Cc3ccc4c(c3)Nc3nccnc3S4)CC2C1 (stereo not shown) [Example 717]	32%	1.15 µM		
CC(CCC1CCN(Cc2ccc3c(c2)Nc2nccnc2S3)CC1)C(=O)O (stereo not shown) [Example 729]	64%	1.3 µM		
c1cncc(NCc2ccc3c(c2)Nc2nccnc2S3)c1 [Example 901, 8-[N-(Pyridin-3-yl)aminomethyl]-10H-pyrazino[2,3-b][1,4]benzothiazine]		1.8 µM		inhibition in vivo at 30 mg/kg [1, 2]: 38%
OC(c1cccnc1)c1ccc2c(c1)Nc1nccnc1S2 (stereo not shown) [Example 1145]	29%	0.77 µM		
NCc1ccc2c(c1)Nc1nccnc1S2 [Example 1241, 8-(Aminomethyl)10H-pyrazino[2,3-b][1,4]benzothiazine hydrochloride]		3.6 µM		inhibition in vivo at 100 mg/kg ([1]; Rattus norvegicus, po, 5 h, dose 100 mg/kg orally 30 minutes before carrageenin, read-out: Inhibitory ratio (%)): 28%
CNc1ncnc2c1ncn2Cc1ccc2c(c1)Nc1nccnc1S2 [Example 1409]		0.67 µM	279 to 281 °C	
CC(C)(O)c1ncnc2c1ncn2Cc1ccc2c(c1)Nc1nccnc1S2 [Example 1439]		0.49 µM		inhibition in vivo at 30 mg/kg [1, 2]: 77%
